Laboratory results published in patent EP2876105A1, “1-(CYCLOALKYL-CARBONYL)PROLINE DERIVATIVE” (Sumitomo Dainippon Pharma Co., Ltd., priority 2012, dated 2014).
Read-outs that look alike come from different tables or passages of the source.

How the values were obtained:
[1] = target: human FXIa (Homo sapiens, UniProt P03951); experiment: In vitro activated factor XI (FXIa) inhibition test; assay type: biochemical
Protocol: To the substrate, S-2366 (pyroGlu-Pro-Arg-pNA•HCl) was added to a final concentration of 300 µmol/L. After the reaction had progressed, the absorbance at OD 405 nm was measured. […]

[2] = Ester metabolism stabilization test: human liver stabilization test; assay type: in vitro ADME; details: human liver S9 with NADPH, 37°C, 30 minutes
Protocol: A reaction solution prepared by mixing 5 µL of human liver S9 (manufactured by Xenotech, 20 mg/mL), 20 µL of 500 mmol/L Kpi (pH7.4), 40 µL of 5 mmol/L NADPH (manufactured by Oriental Yeast Co., Ltd.) aqueous solution, and 133 µL of ion exchange water was added to 2 µL of a DMSO solution containing 100 µmol/L test substance, and the thus obtained mixture was then incubated at 37°C for 30 minutes. After completion of the incubation, 600 µL of acetonitrile was added to the reaction solution, so that the metabolic reaction was terminated. The residual percentage of the test substance was measured using LC (LC-20A manufactured by Shimadzu Corporation) and -MS (API4000 manufactured by AB Sciex).

[3] = Ester metabolism stabilization test: stabilization in human plasma test; assay type: in vitro ADME; details: 37°C, 30 minutes
Protocol: 198 µL of human plasma (manufactured by Cosmo Bio) was added to 2 µL of a DMSO solution containing 100 µmol/L test substance, and the obtained mixture was then incubated at 37°C for 30 minutes. After completion of the incubation, 600 µL of acetonitrile was added to the reaction solution, so that the metabolic reaction was terminated. The residual percentage of the test substance was measured using LC (LC-20A manufactured by Shimadzu Corporation) and -MS (API4000 manufactured by AB Sciex).

[4] = test system: endogenous coagulation pathway; experiment: Activated partial thromboplastin time (aPTT) of blood sample from the rabbit venous thrombus test; assay type: in vivo; details: i.v.; for aPTT: blood collected 2 minutes after administration
Protocol: In order to measure the activated partial thromboplastin time (aPTT) of the blood sample, which was to be used as an indicator of an endogenous coagulation pathway, 2 minutes after the administration of the test agent or the vehicle, blood was collected, and plasma was then prepared using 3.2% sodium citrate. The prepared plasma was incubated at 37°C for 7 minutes, and an STA reagent Cephascreen (used for aPTT measurement; manufactured by Roche Diagnostics) was added in an equal amount to the resulting plasma, and the obtained mixture was further incubated for 3 minutes. Thereafter, STA calcium chloride (manufactured by Roche Diagnostics) was added in an equal amount to the resultant, and the time required until coagulation was then measured.

[5] = test system: rabbit model with venous thrombus; experiment: Rabbit in vivo antithrombotic action evaluation test (venous thrombus model, thrombus weight); details: i.v.
Text: A rabbit model with venous thrombus was produced by modifying the report of Wienen et al. (Wienen W. et al., J. Thromb. Haemost. 5:1237-1242 (2007)). A male rabbit (JW, 2-4 kg) was narcotized by inhalation of isoflurane (ISOFLU®, manufactured by DS Pharma Animal Health) (inductive anesthesia: 4%, continuous anesthesia: 1.5% to 2.5%). For intravenous administration of a test agent and blood collection, catheters were inserted into the left femoral vein and the left femoral artery. The left external jugular vein was exposed (2 cm) from a branch of the facial vein, the microvascular branch was then ligated, and a catheter was then inserted into the posterior facial vein. The external jugular vein (2 cm) exposed from each of an anterior facial vein branch and a facial vein branch was ligated with an artery clamp, and blood was then removed from a catheter left in the posterior facial vein. Blood in the blood vessel was washed with a normal saline, and 0.5% polidocanol (manufactured by Sigma) was injected into the blood vessel. It was then left for 5 minutes, so that the occurrence of a disorder in vascular endothelium was provoked. Thereafter, 0.5% polidocanol was removed, the inside of the blood vessel was then washed with a normal saline, and the artery clamp was then removed. The external jugular vein (2 cm) exposed from the facial vein branch, together with an injection needle 21G (manufactured by Terumo), was ligated with a silk thread, so that the inner diameter of the blood vessel was reduced to 0.8 mm. Twenty-five minutes after recirculation of the blood flow, the external jugular vein (2cm) exposed from the facial vein branch was excised, and the wet weight and dry weight of a thrombus formed in the blood vessel were measured. A test agent or a vehicle was administered to the rabbit 2 minutes before recirculation of the blood flow.

[6] = 0.35 µg/mL human FXIa, substrate S-2366 300 µmol/L, 37°C, 10 minutes, OD 405 nm, read-out: FXIa inhibitory activity IC50

Chain of human FXIa (P03951 388-625 limits assumed): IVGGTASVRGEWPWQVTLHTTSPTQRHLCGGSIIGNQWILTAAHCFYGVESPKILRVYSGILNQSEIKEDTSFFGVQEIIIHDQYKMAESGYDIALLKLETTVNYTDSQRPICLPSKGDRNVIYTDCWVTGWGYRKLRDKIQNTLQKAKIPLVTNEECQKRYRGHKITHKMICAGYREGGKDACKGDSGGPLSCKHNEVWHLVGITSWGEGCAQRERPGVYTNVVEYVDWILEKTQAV
Chain of human FXIa (P03951 19-387 partner limits assumed): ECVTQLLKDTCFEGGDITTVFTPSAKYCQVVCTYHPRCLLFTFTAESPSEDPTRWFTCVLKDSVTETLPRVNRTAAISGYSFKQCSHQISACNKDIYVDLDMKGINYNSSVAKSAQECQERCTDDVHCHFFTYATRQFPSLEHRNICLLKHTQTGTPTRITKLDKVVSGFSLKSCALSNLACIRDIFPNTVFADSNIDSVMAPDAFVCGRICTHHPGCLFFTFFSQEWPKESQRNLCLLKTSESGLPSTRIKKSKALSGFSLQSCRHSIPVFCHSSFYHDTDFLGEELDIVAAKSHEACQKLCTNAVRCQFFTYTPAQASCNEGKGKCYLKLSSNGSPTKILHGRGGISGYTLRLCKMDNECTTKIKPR

Row | Compound | IC50 [1, 6] [nM] | IC50 [1] [nM] | further results
1 | N[C@H](C(F)F)[C@H]1CC[C@H](C(=O)N2CC[C@@H](C3CCCCC3)[C@H]2C(=O)Nc2ccc3oc(C(=O)O)cc3c2)CC1 [compound 146] | 916 | – | –
2 | CC(N)[C@H]1CC[C@H](C(=O)N2CC[C@H](c3ccccc3)[C@H]2C(=O)Nc2ccc3oc(C(=O)O)cc3c2)CC1 (stereo partly drawn) [compound 46] | 90 | – | –
3 | N[C@H](CF)[C@H]1CC[C@H](C(=O)N2CC[C@@H](C3CCCCC3)[C@H]2C(=O)Nc2ccc3oc(C(=O)NS(=O)(=O)N4CCOCC4)cc3c2)CC1 [compound 212] | – | 8 | –
4 | N[C@H](CF)[C@H]1CC[C@H](C(=O)N2CC[C@@H](C3CCCCC3)[C@H]2C(=O)Nc2ccc(C(=O)NS(=O)(=O)c3ccccc3)c(F)c2)CC1 [compound 133] | 99 | – | –
5 | COC1CCC([C@H]2CCN(C(=O)[C@H]3CC[C@H]([C@H](N)CF)CC3)[C@H]2C(=O)Nc2ccc3oc(C(=O)O)cc3c2)CC1 (stereo partly drawn) [compound 187] | – | 285 | –
6 | CC(C)OC(=O)OC(C)OC(=O)c1cc2cc(NC(=O)[C@@H]3[C@H](C4CCCCC4)CCN3C(=O)[C@H]3CC[C@H]([C@H](N)CF)CC3)ccc2[nH]1 (stereo partly drawn) [compound 128] | – | – | Residual percentage (%) Human liver S9 [2]: 47%; Residual percentage (%) Human plasma [3]: 82%
7 | N[C@H](CF)[C@H]1CC[C@H](C(=O)N2CC[C@@H](C3CCCCC3)[C@H]2C(=O)Nc2ccc(C(=O)NS(=O)(=O)c3ccccc3)cc2)CC1 [compound 118] | – | 65 | –
8 | Cc1noc(-c2ccc(NC(=O)[C@@H]3[C@H](C4CCCCC4)CCN3C(=O)[C@H]3CC[C@H]([C@H](N)CF)CC3)cc2)n1 [compound 115] | 1500 | – | –
9 | (1R)-1-([(1S)-1-(trans-4-{[(2S,3S)-3-Cyclohexyl-2-{[4-(1H-tetrazol-5-yl)phenyl]carbamoyl}pyrrolidin-1-yl]carbonyl}cyclohexyl)-2-fluoroethyl]carbamoyl}oxy)ethyl 2-methylpropanoate [Example 205] | – | – | Residual percentage (%) Human liver S9 [2]: 3.5%; Residual percentage (%) Human plasma [3]: 60%
10 | NC(CF)[C@H]1CC[C@H](C(=O)N2CC[C@@H](C3CCCCC3)[C@H]2C(=O)Nc2ccc3oc(C(=O)O)cc3c2)CC1 (stereo partly drawn) [compound 50] | – | 84 | –
11 | CS(=O)(=O)NC(=O)c1ccc(NC(=O)[C@@H]2[C@H](C3CCCCC3)CCN2C(=O)[C@H]2CC[C@H]([C@H](N)CF)CC2)cc1 [compound 147] | 205 | – | –
12 | COC1CCC([C@@H]2CCN(C(=O)[C@H]3CC[C@H]([C@H](N)CF)CC3)[C@@H]2C(=O)Nc2ccc3oc(C(=O)O)cc3c2)CC1 (stereo partly drawn) [compound 102] | – | 93 | –
13 | N[C@H](CF)[C@H]1CC[C@H](C(=O)N2CC[C@@H](C3CCCCC3)[C@H]2C(=O)Nc2ccc3[nH]c(C(=O)NS(=O)(=O)N4CCCCC4)cc3c2)CC1 [compound 213] | 10 | – | –
14 | NC(CF)[C@H]1CC[C@H](C(=O)N2CC[C@@H](C3CCCCC3)[C@H]2C(=O)Nc2ccc3[nH]c(C(=O)O)cc3c2)CC1 (stereo partly drawn) [compound 35] | 14 | – | –
15 | CN(C)S(=O)(=O)NC(=O)c1cc2cc(NC(=O)[C@@H]3[C@H](C4CCCCC4)CCN3C(=O)[C@H]3CC[C@H]([C@H](N)CF)CC3)ccc2o1 [compound 211] | 29 | – | –
16 | COC1CCC([C@@H]2CCN(C(=O)[C@H]3CC[C@H]([C@H](N)CF)CC3)[C@@H]2C(=O)Nc2ccc3oc(C(=O)O)cc3c2)CC1 (stereo partly drawn) [compound 103] | 2350 | – | –
17 | NC(CF)[C@H]1CC[C@H](C(=O)N2CC[C@@H](C3CCCCC3)[C@H]2C(=O)Nc2ccc3[nH]c(C(=O)O)c(Cl)c3c2)CC1 (stereo partly drawn) [compound 34] | 28 | – | –

Row | Compound | IC50 [1, 6] [nM] | IC50 [1] [nM] | further results
18 | COCCOCCCOC(=O)c1cc2cc(NC(=O)[C@@H]3[C@H](C4CCC(OC)CC4)CCN3C(=O)[C@H]3CC[C@H]([C@H](N)CF)CC3)ccc2o1 (stereo partly drawn) [compound 196] | – | 3500 | –
19 | CS(=O)(=O)NC(=O)c1cc2cc(NC(=O)[C@@H]3[C@H](C4CCCCC4)CCN3C(=O)[C@H]3CC[C@H]([C@H](N)CF)CC3)ccc2[nH]1 [compound 114] | 7 | – | –
20 | COC(=O)Nc1nc2ccc(NC(=O)[C@@H]3[C@H](C4CCCCC4)CCN3C(=O)[C@H]3CC[C@H]([C@H](N)CF)CC3)cc2s1 [compound 148] | 140 | – | –
21 | NC[C@H]1CC[C@H](C(=O)N2CCC(c3ccccc3)[C@H]2C(=O)Nc2ccc3[nH]c(C(N)=O)cc3c2)CC1 (stereo partly drawn) [compound 24] | 34 | – | –
22 | NC[C@H]1CC[C@H](C(=O)N2CC[C@@H](c3ccccc3)[C@H]2C(=O)Nc2ccc(-c3nc(=O)o[nH]3)c(F)c2)CC1 [compound 14] | 130 | – | –
23 | N[C@H](CF)[C@H]1CC[C@H](C(=O)N2CCC(C3CCCCC3)[C@H]2C(=O)Nc2ccc3oc(C(=O)O)cc3c2)CC1 (single isomer, unassigned) [compound 53] | – | 34 | aPTT (% vehicle) ([4]; dose 0.1 mg/kg): 103%; aPTT ([4]; dose 0.1 mg/kg): 17.8 s; aPTT (% vehicle) ([4]; dose 0.3 mg/kg): 117%; aPTT ([4]; dose 0.3 mg/kg): 20.3 s; aPTT (% vehicle) ([4]; dose 1.0 mg/kg): 140%; aPTT ([4]; dose 1.0 mg/kg): 24.2 s; aPTT (% vehicle) ([4]; dose 3.0 mg/kg): 166%; aPTT ([4]; dose 3.0 mg/kg): 28.8 s; Thrombus (% inhibition) ([5]; dose 0.1 mg/kg): 25%; Thrombus weight ([5]; dose 0.1 mg/kg): 51.3 mg; Thrombus (% inhibition) ([5]; dose 0.3 mg/kg): 56%; Thrombus weight ([5]; dose 0.3 mg/kg): 30.3 mg; Thrombus (% inhibition) ([5]; dose 1.0 mg/kg): 79%; Thrombus weight ([5]; dose 1.0 mg/kg): 14.7 mg; Thrombus (% inhibition) ([5]; dose 3.0 mg/kg): 80%; Thrombus weight ([5]; dose 3.0 mg/kg): 14.0 mg
24 | N[C@H](CF)[C@H]1CC[C@H](C(=O)N2CCC(C3CCCCC3)[C@H]2C(=O)Nc2ccc3sc(C(=O)O)cc3c2)CC1 (single isomer, unassigned) [compound 130] | – | 195 | –
25 | Cc1c(C(=O)O)[nH]c2ccc(NC(=O)[C@@H]3[C@H](C4CCCCC4)CCN3C(=O)[C@H]3CC[C@H](C(N)CF)CC3)cc12 (stereo partly drawn) [compound 39] | 63 | – | –
26 | Cc1c(C(=O)O)oc2ccc(NC(=O)[C@@H]3[C@H](C4CCCCC4)CCN3C(=O)[C@H]3CC[C@H]([C@H](N)CF)CC3)cc12 [compound 55] | 220 | – | –
27 | N[C@H](CF)[C@H]1CC[C@H](C(=O)N2CC[C@H](c3ccccc3)[C@H]2C(=O)Nc2ccc3[nH]c(C(=O)NS(=O)(=O)N4CCOCC4)cc3c2)CC1 [compound 122] | – | 690 | –
28 | N[C@H](CF)[C@H]1CC[C@H](C(=O)N2CC[C@@H](C3CCCCC3)[C@H]2C(=O)Nc2ccc(C(=O)NCc3ccccn3)cc2)CC1 [compound 137] | – | 380 | –
29 | N[C@H](CF)[C@H]1CC[C@H](C(=O)N2CC[C@@H](C3CCCCC3)[C@H]2C(=O)Nc2ccc3oc(C(=O)NS(=O)(=O)c4ccccc4)cc3c2)CC1 [compound 121] | – | 43 | –
30 | N[C@H](CF)[C@H]1CC[C@H](C(=O)N2CC[C@@H](C3CCCCC3)[C@H]2C(=O)Nc2ccc(C(=O)O)cc2)CC1 [compound 96] | 98 | – | –
31 | Cn1c(C(=O)O)cc2cc(NC(=O)[C@@H]3[C@H](C4CCCCC4)CCN3C(=O)[C@H]3CC[C@H](C(N)CF)CC3)ccc21 (stereo partly drawn) [compound 29] | 82 | – | –
32 | N[C@H](CF)[C@H]1CC[C@H](C(=O)N2CC[C@@H](C3CCCCC3)[C@H]2C(=O)Nc2ccc3[nH]c(C(=O)O)c(Cl)c3c2)CC1 [compound 184] | 30 | – | –
33 | N[C@H](CF)[C@H]1CC[C@H](C(=O)N2CC[C@@H](C3CCCCC3)[C@H]2C(=O)Nc2ccc(C(=O)NS(=O)(=O)c3ccccn3)cc2)CC1 [compound 134] | – | 54 | –
